Experimental data from ChEMBL document CHEMBL4765237, “Structural optimization and structure-activity relationship studies of N-phenyl-7,8-dihydro-6H-pyrimido[5,4-b][1,4]oxazin-4-amine derivatives as a new class of inhibitors of RET and its drug resistance mutants” (Eur J Med Chem, 2018).
Activity calls are given as the source filed them. The calls are words filed in the database; no cut-off is given here.

Legend:
[1] = biological target: Platelet-derived growth factor receptor alpha (Homo sapiens, UniProt P16234); test: Inhibition of human PDGFRalpha (550 to end residues) using poly(Glu, Tyr) 4:1 as substrate measured after 40 mins in presence of [gamma33P]ATP by scintillation counting based radiometry assay
[2] = biological target: Interleukin-1 receptor-associated kinase 1 (Homo sapiens, UniProt P51617); test: Inhibition of human IRAK1 (194 to end residues) using myelin basic protein as substrate after 40 mins by [gamma-33ATP] radiometric assay
Chain of Interleukin-1 receptor-associated kinase 1 (P51617 whole entry): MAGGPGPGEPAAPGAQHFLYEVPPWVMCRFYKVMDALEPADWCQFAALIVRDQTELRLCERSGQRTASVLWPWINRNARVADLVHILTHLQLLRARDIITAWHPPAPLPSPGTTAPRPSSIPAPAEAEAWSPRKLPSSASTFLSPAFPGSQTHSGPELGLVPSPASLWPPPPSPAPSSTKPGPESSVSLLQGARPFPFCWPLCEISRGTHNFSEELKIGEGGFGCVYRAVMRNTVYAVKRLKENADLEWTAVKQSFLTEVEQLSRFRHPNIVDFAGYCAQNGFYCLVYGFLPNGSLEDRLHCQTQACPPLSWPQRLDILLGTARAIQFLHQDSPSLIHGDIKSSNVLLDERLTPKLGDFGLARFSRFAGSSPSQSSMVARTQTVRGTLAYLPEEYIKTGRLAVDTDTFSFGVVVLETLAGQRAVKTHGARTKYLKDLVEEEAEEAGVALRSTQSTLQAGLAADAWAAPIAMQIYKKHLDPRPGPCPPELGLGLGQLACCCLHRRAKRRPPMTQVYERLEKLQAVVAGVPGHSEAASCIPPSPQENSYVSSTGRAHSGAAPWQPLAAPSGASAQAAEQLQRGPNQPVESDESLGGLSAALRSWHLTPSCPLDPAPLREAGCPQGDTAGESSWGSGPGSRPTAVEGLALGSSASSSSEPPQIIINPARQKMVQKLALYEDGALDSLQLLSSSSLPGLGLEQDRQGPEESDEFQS

[3] = Growth inhibition of human H4 cells incubated for 3 days by MTT assay; type: functional; details: H4, 72 h, time 3 day
[4] = biological target: Tyrosine-protein kinase FRK (Homo sapiens, UniProt P42685); test: Inhibition of recombinant human PTK5 (218 to end residues) using GGEEEEYFELVKKKK as substrate incubated for 40 mins in presence of [gamma33P]ATP by scintillation counting based radiometry assay
Chain of Tyrosine-protein kinase FRK (P42685 whole entry): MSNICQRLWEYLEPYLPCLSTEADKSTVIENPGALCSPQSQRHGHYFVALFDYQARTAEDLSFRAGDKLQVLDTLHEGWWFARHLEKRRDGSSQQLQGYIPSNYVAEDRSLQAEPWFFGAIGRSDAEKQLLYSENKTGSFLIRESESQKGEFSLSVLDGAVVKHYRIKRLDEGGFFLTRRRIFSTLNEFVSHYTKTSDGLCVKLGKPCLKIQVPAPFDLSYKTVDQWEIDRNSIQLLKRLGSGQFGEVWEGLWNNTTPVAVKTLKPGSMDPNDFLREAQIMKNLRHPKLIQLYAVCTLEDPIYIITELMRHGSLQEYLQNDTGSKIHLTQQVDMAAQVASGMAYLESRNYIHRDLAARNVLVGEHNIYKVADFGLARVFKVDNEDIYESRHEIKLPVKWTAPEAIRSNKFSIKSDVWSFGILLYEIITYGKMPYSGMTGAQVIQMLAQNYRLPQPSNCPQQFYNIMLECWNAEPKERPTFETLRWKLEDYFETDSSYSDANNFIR

[5] = Volume of distribution at steady state in Sprague-Dawley rat at 10 mg/kg, po measured upto 24 hrs by LC-MS/MS analysis; type: ADME, organism-based; details: in vivo
[6] = biological target: Discoidin domain-containing receptor 2 (Homo sapiens, UniProt Q16832); test: Inhibition of recombinant human DDR2 (467 to end residues) using KKSRGDYMTMQIG as substrate incubated for 40 mins in presence of [gamma-33ATP] by scintillation counting based radiometry assay
Ephrin type-A receptor 7 = Ephrin type-A receptor 7 (Homo sapiens, UniProt Q15375); test: Inhibition of recombinant human EphA7 (613 to 909 residues) using KTFCGTPEYLAPEVRREPRILSEEEQEMFRDFDYIADWC as substrate incubated for 40 mins in presence of [gamma-33ATP] by scintillation counting based radiometry assay
[7] = Growth inhibition of […] NIH3T3 cells incubated for 3 days by MTT assay; type: functional; details: NIH3T3, 72 h; time 3 day
Angiopoietin-1 receptor = Angiopoietin-1 receptor (Homo sapiens, UniProt Q02763); test: Inhibition of recombinant human TIE2 (771 to end residues) using poly(Glu, Tyr) 4:1 as substrate incubated for 40 mins in presence of [gamma33P]ATP by scintillation counting based radiometry assay
[8] = biological target: NT-3 growth factor receptor (Homo sapiens, UniProt Q16288); test: Inhibition of recombinant human TRKC (510 to end residues) using GEEPLYWSFPAKKK as substrate incubated for 40 mins in presence of [gamma33P]ATP by scintillation counting based radiometry assay
Chain of NT-3 growth factor receptor (Q16288 whole entry): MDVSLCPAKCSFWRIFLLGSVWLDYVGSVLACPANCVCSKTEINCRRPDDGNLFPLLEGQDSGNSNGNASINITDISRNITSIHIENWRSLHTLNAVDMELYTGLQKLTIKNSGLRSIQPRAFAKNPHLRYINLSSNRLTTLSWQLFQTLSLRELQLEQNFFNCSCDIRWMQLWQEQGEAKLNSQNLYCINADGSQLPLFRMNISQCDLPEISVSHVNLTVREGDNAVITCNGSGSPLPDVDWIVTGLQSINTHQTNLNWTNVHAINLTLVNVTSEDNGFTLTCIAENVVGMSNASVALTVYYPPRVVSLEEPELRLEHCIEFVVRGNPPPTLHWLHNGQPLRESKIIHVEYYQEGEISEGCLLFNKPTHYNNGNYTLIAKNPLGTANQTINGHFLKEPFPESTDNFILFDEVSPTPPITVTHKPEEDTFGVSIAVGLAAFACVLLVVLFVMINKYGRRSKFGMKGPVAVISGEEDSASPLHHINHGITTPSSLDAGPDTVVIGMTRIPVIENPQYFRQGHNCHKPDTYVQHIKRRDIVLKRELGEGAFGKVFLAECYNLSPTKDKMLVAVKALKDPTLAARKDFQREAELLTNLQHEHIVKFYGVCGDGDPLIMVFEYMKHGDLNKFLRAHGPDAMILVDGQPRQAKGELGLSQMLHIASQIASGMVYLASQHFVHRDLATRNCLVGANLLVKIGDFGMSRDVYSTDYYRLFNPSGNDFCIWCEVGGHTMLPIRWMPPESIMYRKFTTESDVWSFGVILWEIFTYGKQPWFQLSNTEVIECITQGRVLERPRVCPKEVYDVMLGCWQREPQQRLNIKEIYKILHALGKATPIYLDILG

CDK9/cyclin T1 = CDK9/cyclin T1 (Homo sapiens, UniProt P50750); test: Inhibition of recombinant full length human CDK9/cyclinT1 using KTFCGTPEYLAPE as substrate incubated for 40 mins in presence of [gamma-33ATP] by scintillation counting based radiometry assay; type: protein-complex assay
CDK4/Cyclin D3 = CDK4/Cyclin D3 (Homo sapiens, UniProt P11802); test: Inhibition of recombinant full length human CDK4/CyclinD3 using Rb fragment as substrate incubated for 40 mins in presence of [gamma-33ATP] by scintillation counting based radiometry assay; type: protein-complex assay
Chain of CDK4/Cyclin D3 (P11802 whole entry, the tested form may be a part): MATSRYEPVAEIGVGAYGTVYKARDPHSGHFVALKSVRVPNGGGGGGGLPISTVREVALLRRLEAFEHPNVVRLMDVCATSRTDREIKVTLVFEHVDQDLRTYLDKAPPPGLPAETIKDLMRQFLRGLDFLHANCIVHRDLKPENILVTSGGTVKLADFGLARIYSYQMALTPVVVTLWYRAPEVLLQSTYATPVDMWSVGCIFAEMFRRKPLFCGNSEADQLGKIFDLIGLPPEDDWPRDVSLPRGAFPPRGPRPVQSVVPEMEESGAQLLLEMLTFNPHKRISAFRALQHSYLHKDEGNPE
Chain of CDK4/Cyclin D3 (P30281 whole entry, further chain, the tested form may be a part): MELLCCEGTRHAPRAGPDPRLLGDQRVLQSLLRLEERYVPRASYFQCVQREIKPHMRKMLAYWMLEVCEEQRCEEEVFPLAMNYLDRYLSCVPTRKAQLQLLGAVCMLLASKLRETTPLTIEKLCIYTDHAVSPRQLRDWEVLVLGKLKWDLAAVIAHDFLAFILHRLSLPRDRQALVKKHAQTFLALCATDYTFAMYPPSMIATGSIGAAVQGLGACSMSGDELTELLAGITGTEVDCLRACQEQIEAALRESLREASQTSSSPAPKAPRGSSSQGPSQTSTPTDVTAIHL

BaF3 [9] = test: Growth inhibition of mouse BaF3 cells over expressing wild type RET incubated for 3 days by MTT assay; type: functional; details: BaF3, 72 h, time 3 day
[10] = biological target: Mast/stem cell growth factor receptor Kit (Homo sapiens, UniProt P10721); test: Inhibition of recombinant human C-Kit using poly(Glu, Tyr) 4:1 as substrate incubated for 40 mins in presence of [gamma-33ATP] by scintillation counting based radiometry assay
BaF3 [11] = test: Growth inhibition of mouse BaF3 cells incubated for 3 days by MTT assay; type: functional; details: BaF3, 72 h, time 3 day
[12] = Growth inhibition of […] NIH3T3 cells harboring RET C634Y mutant incubated for 3 days by MTT assay; type: functional; details: NIH3T3, 72 h; time 3 day
HeLa = test: Growth inhibition of human HeLa cells incubated for 3 days by MTT assay; type: functional; details: 72 h, time 3 day
[13] = biological target: Serine/threonine-protein kinase Nek9 (Homo sapiens, UniProt Q8TD19); test: Inhibition of recombinant human NEK9 (1 to 324 residues) using myelin basic protein as substrate measured after 40 mins in presence of [gamma33P]ATP by scintillation counting based radiometry assay
Chain of Serine/threonine-protein kinase Nek9 (Q8TD19 whole entry, the tested form may be a part): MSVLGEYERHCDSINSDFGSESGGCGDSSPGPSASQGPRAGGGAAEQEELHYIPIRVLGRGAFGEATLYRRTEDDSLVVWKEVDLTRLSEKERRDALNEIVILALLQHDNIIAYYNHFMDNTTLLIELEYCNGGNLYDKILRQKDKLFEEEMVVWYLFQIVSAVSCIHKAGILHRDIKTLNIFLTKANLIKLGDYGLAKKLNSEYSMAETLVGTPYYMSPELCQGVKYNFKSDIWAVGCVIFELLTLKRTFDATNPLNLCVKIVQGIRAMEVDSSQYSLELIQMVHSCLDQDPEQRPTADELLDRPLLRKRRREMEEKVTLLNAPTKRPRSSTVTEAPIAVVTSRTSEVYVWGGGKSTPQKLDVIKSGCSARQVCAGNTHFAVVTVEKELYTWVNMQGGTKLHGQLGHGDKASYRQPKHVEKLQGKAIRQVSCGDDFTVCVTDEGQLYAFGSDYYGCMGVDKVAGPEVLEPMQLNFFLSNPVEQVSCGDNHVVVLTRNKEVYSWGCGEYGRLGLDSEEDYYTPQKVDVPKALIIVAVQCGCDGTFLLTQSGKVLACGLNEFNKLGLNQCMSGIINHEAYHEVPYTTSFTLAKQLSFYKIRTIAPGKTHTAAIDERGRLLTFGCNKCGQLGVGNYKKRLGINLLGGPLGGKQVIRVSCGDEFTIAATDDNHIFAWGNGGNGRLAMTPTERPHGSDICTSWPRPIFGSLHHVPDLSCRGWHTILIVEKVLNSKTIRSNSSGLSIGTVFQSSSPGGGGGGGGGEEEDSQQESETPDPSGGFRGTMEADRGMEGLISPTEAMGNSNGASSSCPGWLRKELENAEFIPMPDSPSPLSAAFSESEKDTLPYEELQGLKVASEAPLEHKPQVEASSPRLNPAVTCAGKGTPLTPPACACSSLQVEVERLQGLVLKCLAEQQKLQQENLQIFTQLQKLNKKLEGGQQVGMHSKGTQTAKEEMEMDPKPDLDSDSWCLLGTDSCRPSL

[14] = biological target: Vascular endothelial growth factor receptor 2 (Homo sapiens, UniProt P35968); test: Inhibition of human KDR (790 to end residues) using myelin basic protein as substrate after 40 mins by [gamma-33ATP] radiometric assay
MDA-MB-231 = test: Growth inhibition of human MDA-MB-231 cells incubated for 3 days by MTT assay; type: functional; details: MDA-MB-231, 72 h, time 3 day
[15] = Growth inhibition of human Ocut-2C cells incubated for 3 days by MTT assay; type: functional; details: OCUT2C, 72 h, time 3 day
Aurora kinase B = Aurora kinase B (Homo sapiens, UniProt Q96GD4); test: Inhibition of recombinant full length human Aurora B using AKRRRLSSLRA as substrate incubated for 40 mins in presence of [gamma-33ATP] by scintillation counting based radiometry assay
[16] = biological target: Macrophage-stimulating protein receptor (Homo sapiens, UniProt Q04912); test: Inhibition of recombinant human Ron (983 to end residues) using GGMEDIYFEFMGGKKK as substrate incubated for 40 mins in presence of [gamma33P]ATP by scintillation counting based radiometry assay
Chain of Macrophage-stimulating protein receptor (Q04912 25-304 limits assumed): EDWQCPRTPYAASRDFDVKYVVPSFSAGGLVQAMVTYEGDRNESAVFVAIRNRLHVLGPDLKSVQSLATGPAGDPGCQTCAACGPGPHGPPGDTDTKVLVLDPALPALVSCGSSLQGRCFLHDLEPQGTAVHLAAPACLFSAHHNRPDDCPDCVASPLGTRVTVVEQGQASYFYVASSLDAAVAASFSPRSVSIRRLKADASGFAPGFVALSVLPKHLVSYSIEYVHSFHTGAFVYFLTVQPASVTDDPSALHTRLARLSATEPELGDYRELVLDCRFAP
Chain of Macrophage-stimulating protein receptor (Q04912 310-1400 limits assumed): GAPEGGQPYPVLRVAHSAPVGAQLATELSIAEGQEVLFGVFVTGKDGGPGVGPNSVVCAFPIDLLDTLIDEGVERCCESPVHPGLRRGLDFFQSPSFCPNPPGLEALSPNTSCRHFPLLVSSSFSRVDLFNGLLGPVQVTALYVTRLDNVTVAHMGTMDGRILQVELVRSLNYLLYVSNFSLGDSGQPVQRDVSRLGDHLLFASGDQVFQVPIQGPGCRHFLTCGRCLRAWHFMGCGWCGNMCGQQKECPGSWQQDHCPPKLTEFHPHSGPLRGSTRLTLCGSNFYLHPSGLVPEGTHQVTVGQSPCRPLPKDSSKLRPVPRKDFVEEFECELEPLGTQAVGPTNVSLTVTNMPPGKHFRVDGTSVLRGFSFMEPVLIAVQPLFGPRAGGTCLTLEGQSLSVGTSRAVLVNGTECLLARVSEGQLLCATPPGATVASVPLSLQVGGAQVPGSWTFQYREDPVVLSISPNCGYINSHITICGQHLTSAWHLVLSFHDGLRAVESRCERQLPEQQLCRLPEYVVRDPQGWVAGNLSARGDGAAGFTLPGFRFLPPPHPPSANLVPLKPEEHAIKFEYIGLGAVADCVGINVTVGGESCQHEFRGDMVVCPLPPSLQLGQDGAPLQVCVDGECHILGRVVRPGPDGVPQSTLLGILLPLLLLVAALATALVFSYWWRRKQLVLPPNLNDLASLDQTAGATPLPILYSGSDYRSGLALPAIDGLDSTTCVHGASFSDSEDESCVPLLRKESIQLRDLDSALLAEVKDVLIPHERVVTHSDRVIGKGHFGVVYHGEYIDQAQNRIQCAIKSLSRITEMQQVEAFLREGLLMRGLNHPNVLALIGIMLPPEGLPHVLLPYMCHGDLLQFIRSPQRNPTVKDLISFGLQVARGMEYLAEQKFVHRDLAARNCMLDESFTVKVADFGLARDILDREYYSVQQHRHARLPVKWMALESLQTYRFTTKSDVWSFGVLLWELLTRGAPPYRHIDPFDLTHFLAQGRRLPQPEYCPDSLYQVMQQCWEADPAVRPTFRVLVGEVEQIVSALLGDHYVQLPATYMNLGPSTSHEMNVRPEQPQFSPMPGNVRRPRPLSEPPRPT

BHT-101 = test: Growth inhibition of human BHT-101 cells incubated for 3 days by MTT assay; type: functional; details: BHT-101, 72 h, time 3 day
Mus musculus [17] = species on record: Mus musculus; details: NOD-SCID, dose 30.0 mg/kg, time 18.0 day
[18] = biological target: Vascular endothelial growth factor receptor 3 (Homo sapiens, UniProt P35916); test: Inhibition of recombinant human FLT4 (800 to end residues) using GGEEEEYFELVKKKK as substrate incubated for 40 mins in presence of [gamma-33ATP] by scintillation counting based radiometry assay
BaF3 [19] = test: Growth inhibition of mouse BaF3 cells harboring RET M918T mutant incubated for 3 days by MTT assay; type: functional; details: BaF3, 72 h, time 3 day
Ephrin type-A receptor 2 = Ephrin type-A receptor 2 (Homo sapiens, UniProt P29317); test: Inhibition of recombinant human EphA2 (596 to 900 residues) using poly(Glu, Tyr) 4:1 as substrate incubated for 40 mins in presence of [gamma-33ATP] by scintillation counting based radiometry assay
Mus musculus [20] = species on record: Mus musculus; details: NOD-SCID, dose 30.0 mg/kg, time 18.0 day; remark: listed apart in the source
[21] = biological target: Vascular endothelial growth factor receptor 1 (Homo sapiens, UniProt P17948)
[22] = biological target: High affinity nerve growth factor receptor (Homo sapiens, UniProt P04629)
[23] = biological target: BDNF/NT-3 growth factors receptor (Homo sapiens, UniProt Q16620); test: Inhibition of recombinant human TRKB (455 to end residues) using poly(Glu, Tyr) 4:1 as substrate incubated for 40 mins in presence of [gamma33P]ATP by scintillation counting based radiometry assay
BGC-823 = test: Growth inhibition of human BGC-823 cells incubated for 3 days by MTT assay; type: functional; details: BGC-823, 72 h, time 3 day

Q: Which results are given for `CC(C)(C)c1cc(NC(=O)Nc2ccc(Nc3ncnc4c3OCCCN4)cc2)no1`?
A: IC50 [1]: 262 nM; IC50 [2]: 179 nM; GI50 [3]: > 10000 nM; IC50 [4]: 51 nM; Vdss [5]: 0.05 L/kg; IC50 [6]: 55 nM; IC50 (Ephrin type-A receptor 7): 199 nM; GI50 [7]: > 10000 nM; IC50 (Angiopoietin-1 receptor): 408 nM; IC50 [8]: 20 nM; IC50 (CDK9/cyclin T1): 833 nM; IC50 (CDK4/Cyclin D3): 1110 nM; GI50 (BaF3 [9]): 100 nM; IC50 [10]: 218 nM; GI50 (BaF3 [11]): > 10000 nM; GI50 [12]: 80 nM; GI50 (HeLa): > 10000 nM; IC50 [13]: 1800 nM; IC50 [14]: 892 nM; GI50 (MDA-MB-231): > 10000 nM; GI50 [15]: > 10000 nM; IC50 (Aurora kinase B): 1630 nM; IC50 [16]: 1260 nM; GI50 (BHT-101): > 10000 nM; inhibition (Mus musculus [17]): Active; IC50 [18]: 6 nM; GI50 (BaF3 [19]): 870 nM; IC50 (Ephrin type-A receptor 2): 104 nM; inhibition (Mus musculus [20]): Active; IC50 [21]: 8 nM; IC50 [22]: 71 nM; IC50 [23]: 68 nM; GI50 (BGC-823): 8470 nM
